According to US6576780B1, “Hydroxyamidino derivatives useful as nitric oxide synthase inhibitors” (GD Searle & Company, priority 1996, dated 2003):
Counter-ions that a name gives are not always drawn.

Tests used:
[1] = molecular target: T1, mouse inducible NOS (miNOS) (Mus musculus, UniProt P29477); experiment: Citrulline assay for nitric oxide synthase, miNOS; assay type: biochemical; conditions: partially purified enzyme from LPS-treated RAW 264.7 cells
T1 construct: prepared from an extract of LPS-treated mouse RAW 264.7 cells; endogenous in cells; host or cells: LPS-treated mouse RAW 264.7 cells
Method: (§1) NOS activity was measured by monitoring the conversion of L-[2,3-^3H]-arginine to L-[2,3- H]-citrulline. Mouse inducible NOS (miNOS) was prepared from an extract of LPS-treated mouse RAW 264.7 cells and rat brain constitutive NOS (rnNOS) was prepared from an extract of rat cerebellum. Both preparations were partially purified by DEAE-Sepharose chromatography. Enzyme (10 μL) was added to 40 μL of 50 mM Tris (pH 7.6) and the reaction initiated by the addition of 50 μL of a solution containing 50 mM Tris (pH 7.6), 2.0 mg/mL bovine serum albumin, 2.0 mM DTT, 4.0 mM CaCl2, 20 μM FAD, 100 &M tetrahydrobiopterin, 2.0 mM NADPH and 60 μM L-arginine containing 0.9 μCi of L-[2,3-^3H]-arginine. For constitutive NOS, calmodulin was included at a final concentration of 40 nM. Following incubation at 37° C. for 15 minutes, the reaction was terminated by addition of 300 μL cold buffer containing 10 mM EGTA, 100 mM HEPES (pH 5.5) and 1.0 mM L-citrulline. The [^3H]-citrulline was separated by chromatography on Dowex 50W X-8 cation exchange resin and radioactivity quantified with a liquid scintillation counter.

[2] = tested on: plasma nitrites induced by endotoxin (LPS); experiment: In vivo low-endotoxin (Low Dose LPS) assay; design: species or system rat; conditions: rats, LPS i.p., plasma nitrites 5 hours post-treatment
Method: Rats were treated with an intraperitoneal injection of 10 mg/kg of endotoxin (LPS) with or without oral administration of the nitric oxide synthase inhibitors. Plasma nitrites were measured 5 hours post-treatment.

RAW 264.7 cells = experiment: Raw cell nitrite assay; assay type: cell-based; conditions: Mus musculus, RAW264.7, cultured RAW 264.7 cells, LPS-induced
Method: RAW 264.7 cells are plated to confluency on a 96-well tissue culture plate grown overnight (17 h) in the presence of LPS to induce NOS. A row of 3-6 wells were left untreated and served as controls for subtraction of nonspecific background. The media was removed from each well and the cells are washed twice with Kreb-Ringers-Hepes (25 mM, pH 7.4) with 2 mg/ml glucose. The cells are then placed on ice and incubated with […] of buffer containing L-arginine (30 mM) +/− inhibitors for 1 h. The assay is initiated by warming the plate to 37° C. in a water bath for 1 h. Production of nitrite by intracellular iNOS is linear with time. To terminate the cellular assay, the plate of cells is placed on ice and the nitrite-containing buffer removed and analyzed for nitrite using a previously published fluorescent determination for nitrite. T. P. Misko et al, Analytical Biochemistry, 214, 11-16 (1993). All values are the average of triplicate wells and are compared to a background-subtracted induced set of cells (100% value).

[3] = molecular target: recombinant human inducible NOS (hiNOS) (Homo sapiens, UniProt P35228); experiment: Human in vitro enzyme data, hiNOS; assay type: biochemical
[4] = molecular target: recombinant human endothelial constitutive NOS (hecNOS) (Homo sapiens, UniProt P29474); experiment: Human in vitro enzyme data, hecNOS; assay type: biochemical
[5] = molecular target: recombinant human neuronal constitutive NOS (hncNOS) (Homo sapiens, UniProt P29475); experiment: Human in vitro enzyme data, hncNOS; assay type: biochemical
[6] = molecular target: T2, rat brain constitutive NOS (rnNOS) (Rattus norvegicus, UniProt P29476); experiment: Citrulline assay for nitric oxide synthase, rnNOS; assay type: biochemical; conditions: partially purified enzyme from rat cerebellum
T2 construct: was prepared from an extract of rat cerebellum; from tissue; host or cells: rat cerebellum
Method: as §1

With `C/C(=N\O)NCCCC[C@H](N)C(=O)O` [Example 1, N^6-[1-(Hydroxyimino)ethyl]-L-lysine, Dihydrochloride] the IC50 [1] was 77 µM, the “Inhibition of LPS-induced plasma nitrite” value ([2]; 0.1 mg/kg/day p.o.) was 0% inh and the “Inhibition of LPS-induced plasma nitrite” value ([2]; 1 mg/kg/day p.o.) was 54% inh. The “Inhibition of LPS-induced plasma nitrite” value ([2]; 10 mg/kg/day p.o.) was 97% inh, the IC50 (RAW 264.7 cells) was 28 µM and the IC50 [3] was 154 µM. For the same compound, the IC50 [4] was 1470 µM, the IC50 [5] was 907 µM and the IC50 [6] was 1470 µM.
